Test results from patent publication US8735364B2, “Antisense modulation of apolipoprotein B expression” (Genzyme Corporation, priority 2001, dated 2014).
Oligonucleotides are written 5' to 3', each unit as a sugar letter and its base; * is a phosphorothioate linkage, no mark a phosphodiester; rarer units and linkages stand in square brackets, end groups in braces. Plain capitals give the bases only. e = 2'-O-(2-methoxyethyl) (MOE); [5mC] = 5-methylcytosine; d = 2'-deoxy (DNA)

What was measured:
[1] = tested on: mouse apolipoprotein B mRNA; experiment: Inhibition of mouse apolipoprotein B mRNA levels in primary hepatocytes, quantitative real-time PCR; format: cell-based; design: %INHIB of mouse apolipoprotein B mRNA levels: concentration or dose not given beside the values; settings: for %INHIB of mouse apolipoprotein B mRNA levels: averages from two experiments
Experimental: Primary mouse hepatocytes were prepared from CD-1 mice purchased from Charles River Labs (Wilmington, Mass.) and were routinely cultured in Hepatoyte Attachment Media (Gibco) supplemented with 10% Fetal Bovine Serum (Gibco/Life Technologies, Gaithersburg, Md.), 250 nM dexamethasone (Sigma), and 10 nM bovine insulin (Sigma). Cells were seeded into 96-well plates (Falcon-Primaria #3872) at a density of 10000 cells/well for use in RT-PCR analysis.
(§1) When cells reached 80% confluency, they were treated with oligonucleotide. For cells grown in 96-well plates, wells were washed once with 200 μL OPTI-MEM™-1 reduced-serum medium (Gibco BRL) and then treated with 130 μL of OPTI-MEM™-1 containing 3.75 μg/mL LIPOFECTIN™ (Gibco BRL) and the desired concentration of oligonucleotide. After 4-7 hours of treatment, the medium was replaced with fresh medium. Cells were harvested 16-24 hours after oligonucleotide treatment.
(§2) Quantitation of apolipoprotein B mRNA levels was determined by real-time quantitative PCR using the ABI PRISM™ 7700 Sequence Detection System (PE-Applied Biosystems, Foster City, Calif.) according to manufacturer's instructions. This is a closed-tube, non-gel-based, fluorescence detection system which allows high-throughput quantitation of polymerase chain reaction (PCR) products in real-time. As opposed to standard PCR, in which amplification products are quantitated after the PCR is completed, products in real-time quantitative PCR are quantitated as they accumulate. This is accomplished by including in the PCR reaction an oligonucleotide probe that anneals specifically between the forward and reverse PCR primers, and contains two fluorescent dyes. A reporter dye (e.g., JOE, FAM, or VIC, obtained from either Operon Technologies Inc., Alameda, Calif. or PE-Applied Biosystems, Foster City, Calif.) is attached to the 5′ end of the probe and a quencher dye (e.g., TAMRA, obtained from either Operon Technologies Inc., Alameda, Calif. or PE-Applied Biosystems, Foster City, Calif.) is attached to the 3′ end of the probe. When the probe and dyes are intact, reporter dye emission is quenched by the proximity of the 3′ quencher dye. During amplification, annealing of the probe to the target sequence creates a substrate that can be cleaved by the 5′-exonuclease activity of Taq polymerase. […] With each cycle, additional reporter dye molecules are cleaved from their respective probes, and the fluorescence intensity is monitored at regular intervals by laser optics built into the ABI PRISM™ 7700 Sequence Detection System. In each assay, a series of parallel reactions containing serial dilutions of mRNA from untreated control samples generates a standard curve that is used to quantitate the percent inhibition after antisense oligonucleotide treatment of test samples.
(§3) PCR reagents were obtained from PE-Applied Biosystems, Foster City, Calif. RT-PCR reactions were carried out by adding 25 μL PCR cocktail (1× TAQMAN™ buffer A, 5.5 mM MgCl2, 300 μM each of DATP, dCTP and dGTP, 600 μM of dUTP, 100 nM each of forward primer, reverse primer, and probe, 20 Units RNAse inhibitor, 1.25 Units AMPLITAQ GOLD™, and 12.5 Units MuLV reverse transcriptase) to 96 well plates containing 25 μL total RNA solution. The RT reaction was carried out by incubation for 30 minutes at 48° C. Following a 10 minute incubation at 95° C. to activate the AMPLITAQ GOLD™, 40 cycles of a two-step PCR protocol were carried out: 95° C. for 15 seconds (denaturation) followed by 60° C. for 1.5 minutes (annealing/extension).
(§4) Gene target quantities obtained by real time RT-PCR are normalized using either the expression level of GAPDH, a gene whose expression is constant, or by quantifying total RNA using RiboGreen™ (Molecular Probes, Inc. Eugene, Oreg.). GAPDH expression is quantified by real time RT-PCR, by being run simultaneously with the target, multiplexing, or separately. Total RNA is quantified using RiboGreen™ RNA quantification reagent from Molecular Probes. […]

[2] = tested on: human apolipoprotein B mRNA; experiment: Inhibition of human apolipoprotein B mRNA levels in HepG2 cells, quantitative real-time PCR; format: cell-based; design: %INHIB of human apolipoprotein B mRNA levels: concentration or dose not given beside the values; settings: for %INHIB of human apolipoprotein B mRNA levels: averages from two experiments
Experimental: The human hepatoblastoma cell line HepG2 was obtained from the American Type Culture Collection (Manassas, Va.). HepG2 cells were routinely cultured in Eagle's MEM supplemented with 10% fetal calf serum, non-essential amino acids, and 1 mM sodium pyruvate (Gibco/Life Technologies, Gaithersburg, Md.). Cells were routinely passaged by trypsinization and dilution when they reached 90% confluence. Cells were seeded into 96-well plates (Falcon-Primaria #3872) at a density of 7000 cells/well for use in RT-PCR analysis.
as §1, §2, §3
as §4, with “separately.” for “separately. Total RNA is quantified using RiboGreen™ RNA quantification reagent from Molecular Probes.”

Row | Substance | %INHIB of mouse apolipoprotein B mRNA levels [1] [%] | %INHIB of human apolipoprotein B mRNA levels [2] [%] | other results
1 | 147769 (antisense e[5mC]*eA*eT*eG*e[5mC]*d[5mC]*dT*dG*dG*dA*dA*dG*d[5mC]*d[5mC]*dA*eG*eT*eG*eT*e[5mC]) [compound 147769] | 89 | – | Percent Inhibition of mouse apolipoprotein B mRNA levels ([1]; 50 nM): 3%; Percent Inhibition of mouse apolipoprotein B mRNA levels ([1]; 150 nM): 14%; Percent Inhibition of mouse apolipoprotein B mRNA levels ([1]; 300 nM): 28%
2 | 147770 (antisense eG*eT*eG*eT*eT*dG*dA*dA*dT*d[5mC]*d[5mC]*d[5mC]*dT*dT*dG*eA*eA*eA*eT*e[5mC]) [compound 147770] | 67 | – | –
3 | 147771 (antisense eG*eG*eT*eA*eA*dA*dG*dT*dT*dG*d[5mC]*d[5mC]*d[5mC]*dA*dT*eG*eG*e[5mC]*eT*eG) [compound 147771] | 68 | – | –
4 | 147772 (antisense eG*eT*eT*eA*eT*dA*dA*dA*dG*dT*d[5mC]*d[5mC]*dA*dG*d[5mC]*eA*eT*eT*eG*eG) [compound 147772] | 78 | – | –
5 | 147773 (antisense e[5mC]*eA*eT*e[5mC]*eA*dG*dA*d[5mC]*dG*dT*dG*dA*dT*dG*dT*eT*e[5mC]*e[5mC]*e[5mC]*eT) [compound 147773] | 85 | – | –
6 | 147774 (antisense eT*eG*eG*e[5mC]*eT*dA*dG*dT*dT*dT*d[5mC]*dA*dA*dT*d[5mC]*e[5mC]*e[5mC]*e[5mC]*eT*eT) [compound 147774] | 84 | – | –
7 | 147775 (antisense e[5mC]*eT*eG*eT*e[5mC]*dA*dT*dG*dA*d[5mC]*dT*dG*d[5mC]*d[5mC]*d[5mC]*eT*eT*eT*eA*e[5mC]) [compound 147775] | 52 | – | –
8 | 147776 (antisense eG*e[5mC]*eT*eT*eG*dA*dA*dG*dT*dT*d[5mC]*dA*dT*dT*dG*eA*eG*eA*eA*eT) [compound 147776] | 92 | – | Percent Inhibition of mouse apolipoprotein B mRNA levels ([1]; 50 nM): 0%; Percent Inhibition of mouse apolipoprotein B mRNA levels ([1]; 150 nM): 17%; Percent Inhibition of mouse apolipoprotein B mRNA levels ([1]; 300 nM): 44%
9 | 147778 (antisense eT*e[5mC]*eA*eG*eA*dT*dA*dT*dA*d[5mC]*dA*dT*dT*dG*dG*e[5mC]*eT*eT*e[5mC]*eA) [compound 147778] | 14 | – | –
10 | 147780 (antisense e[5mC]*e[5mC]*eG*e[5mC]*eA*dG*dG*dT*d[5mC]*d[5mC]*d[5mC]*dG*dG*dT*dG*eG*eG*eA*eA*eT) [compound 147780] | – | 40 | –
11 | 147781 (antisense eA*e[5mC]*e[5mC]*eG*eA*dG*dA*dA*dG*dG*dG*d[5mC]*dA*d[5mC]*dT*e[5mC]*eA*eG*e[5mC]*e[5mC]) [compound 147781] | – | 35 | –
12 | 147784 (antisense e[5mC]*eA*eG*e[5mC]*eG*d[5mC]*d[5mC]*dA*dG*d[5mC]*dA*dG*d[5mC]*dG*d[5mC]*e[5mC]*eA*eG*e[5mC]*eA) [compound 147784] | – | 70 | –
13 | 147785 (antisense eG*e[5mC]*e[5mC]*e[5mC]*eG*d[5mC]*d[5mC]*dA*dG*d[5mC]*dA*dG*d[5mC]*dA*dG*e[5mC]*eA*eG*e[5mC]*eA) [compound 147785] | – | 29 | –
14 | 147786 (antisense e[5mC]*eT*eT*eG*eA*dA*dT*d[5mC]*dA*dG*d[5mC]*dA*dG*dT*d[5mC]*e[5mC]*e[5mC]*eA*eG*eG) [compound 147786] | – | 34 | –
15 | 147788 (antisense eT*eT*eT*e[5mC]*eT*dG*dT*dT*dG*d[5mC]*d[5mC]*dA*d[5mC]*dA*dT*eT*eG*e[5mC]*e[5mC]*e[5mC]) [compound 147788] | – | 95 | Percent Inhibition of human apolipoprotein B mRNA levels ([2]; 50 nM): 54%; Percent Inhibition of human apolipoprotein B mRNA levels ([2]; 150 nM): 63%; Percent Inhibition of human apolipoprotein B mRNA levels ([2]; 250 nM): 72%
16 | 147790 (antisense eT*eG*eT*eG*e[5mC]*dT*dA*d[5mC]*d[5mC]*dA*dT*d[5mC]*d[5mC]*d[5mC]*dA*eT*eA*e[5mC]*eT*eT) [compound 147790] | – | 33 | –
17 | 147792 (antisense eG*eG*eA*e[5mC]*eA*d[5mC]*d[5mC]*dT*d[5mC]*dA*dA*dT*d[5mC]*dA*dG*e[5mC]*eT*eG*eT*eG) [compound 147792] | – | 26 | –
18 | 147794 (antisense eG*eT*eA*eA*eT*d[5mC]*dT*dT*d[5mC]*dA*dT*d[5mC]*d[5mC]*d[5mC]*d[5mC]*eA*eG*eT*eG*e[5mC]) [compound 147794] | – | 47 | –
19 | 147796 (antisense eG*e[5mC]*eA*eG*e[5mC]*d[5mC]*dA*dG*dT*d[5mC]*dG*d[5mC]*dT*dT*dA*eT*e[5mC]*eT*e[5mC]*e[5mC]) [compound 147796] | – | 8 | –
20 | 147801 (antisense e[5mC]*eA*eG*eA*e[5mC]*d[5mC]*d[5mC]*dG*dA*d[5mC]*dT*d[5mC]*dG*dT*dG*eG*eA*eA*eG*eA) [compound 147801] | – | 38 | –
21 | 147806 (antisense eA*eT*eG*eT*eG*dG*dT*dA*dA*d[5mC]*dG*dA*dG*d[5mC]*d[5mC]*e[5mC]*eG*eA*eA*eG) [compound 147806] | – | 100 | Percent Inhibition of human apolipoprotein B mRNA levels ([2]; 50 nM): 23%; Percent Inhibition of human apolipoprotein B mRNA levels ([2]; 150 nM): 45%; Percent Inhibition of human apolipoprotein B mRNA levels ([2]; 250 nM): 28%
22 | 147807 (antisense eG*eG*e[5mC]*eG*eT*dA*dG*dA*dG*dA*d[5mC]*d[5mC]*d[5mC]*dA*dT*e[5mC]*eA*e[5mC]*eA*eT) [compound 147807] | – | 25 | –
23 | 147809 (antisense e[5mC]*e[5mC]*e[5mC]*eA*eG*dT*dG*dA*dT*dA*dG*d[5mC]*dT*d[5mC]*dT*eG*eT*eG*eA*eG) [compound 147809] | – | 60 | –
24 | 147810 (antisense eA*eT*eT*eT*e[5mC]*dA*dG*d[5mC]*dA*dT*dA*dT*dG*dA*dG*e[5mC]*e[5mC]*e[5mC]*eA*eT) [compound 147810] | – | 0 | –
25 | 147814 (antisense e[5mC]*e[5mC]*e[5mC]*eA*eA*dT*dA*dA*dG*dA*dT*dT*dT*dA*dT*eA*eA*e[5mC]*eA*eA) [compound 147814] | – | 34 | –
26 | 147815 (antisense eT*eG*eG*e[5mC]*e[5mC]*dT*dA*d[5mC]*d[5mC]*dA*dG*dA*dG*dA*d[5mC]*eA*eG*eG*eT*eA) [compound 147815] | – | 45 | –
27 | 147818 (antisense eA*eG*eT*eG*eA*dT*dG*dG*dA*dA*dG*d[5mC]*dT*dG*d[5mC]*eG*eA*eT*eA*e[5mC]) [compound 147818] | – | 30 | –
